Results reported in patent publication US6630347B1, “Endothelial NOS transgenic animals and methods of use” (The General Hospital Corporation, priority 1996, dated 2003).
Structures can show the parent of a compound that is named as a salt. Marks after values point to notes of the source that are not given here.

How the values were obtained:
[1] = Babbedge et al. (1993); cited from earlier work
NOS binding sites = assay: [3H]L-NG-nitro-arginine autoradiographic binding assay in brain sections; parameters: species or system mouse; settings: for L-NA displaceable [3H]L-NA binding in the presence of 7-NI: 100 μM 7-NI; for L-NA displaceable [3H]L-NA binding in the presence of D-NA: 10 μM D-NA
Description: Mice and rats were sacrificed by decapitation under 2% halothane anesthesia (30% O2+70% N2O). The brains were rapidly removed, immediately frozen in powdered dry ice, and stored at −70° C. Twelve μm sagittal or coronal sections were cut in a cryostat-microtome at −18° C. (Leitz 1720, Leica, Deerfield, Ill., U.S.A.) and thaw-mounted onto gelatin-coated slides (1% gelatin and 0.1% KCr2O). Adjacent sections were stained with cresyl violet and hematoxylin eosin, and stored at −70° C.
The method for the autoradiographic visualization of NOS binding using [^3H]L-NG-Nitro-arginine ([^3H]L-NA) has been described previously. Rutherford et al., (1995). Prior to experiments, sections were brought to −20° C. and then to room temperature. Sections were preincubated for 15 min at room temperature in 50 mM Tris-HCl (pH 7.3) to remove the endogenous ligands and/or modulators, then incubated for 30 min at room temperature in 50 mM Tris-HCl buffer containing 10 μM CaCl2 and 25 nM N^G-nitro-L-[2,3,4,5-H]arginine hydrochloride ([^3H]L-NA, specific activity: 48-57 Ci/mmol, Amersham, Arlington Heights, Ill., U.S.A.). Unlabelled L-N^G-nitro-arginiine (L-NA, Sigma, St. Louis, Mo., U.S.A.), D-N^G-nitro-arginine (D-NA, RBI, Natick, Mass., U.S.A.) and 7-nitroindazole (7-NI, Cookson Chemicals Ltd., England) was added at concentrations of 10, 10, and 100 μM, respectively. The sections were then washed twice for 5 min in ice-cold buffer and rinsed for 10 sec in ice-cold distilled water to eliminate residual buffer. After drying with cold air, the slides were tightly apposed to ^3H-Hyperfilm (Amersham) together with tritiated polymer standards (Amersham) and exposed at −4° C. for 6 weeks.
Films were developed in Kodak D-19 and fixed in Kodak Rapid Fixer, according to the manufacturer's instructions. The optical density of the regions of interest was measured by a computer-assisted image analysis (System M4, Imaging Research, St. Catharines, Ontario, Canada). The relationship between optical density and radioactivity was examined with reference to the tritium standards (Amersham, [^3H]microscale) co-exposed with the tissue sections. […] The densities of NOS binding sites are expressed in fmol bound [^3H]L-NA/mg tissue using the [^3H]L-NA concentration of 25 nM.

pial arterioles = assay: Pial arteriole diameter during superfusion in closed cranial window; format: in vivo, mice
Text: The mouse head was fixed in a stereotaxic frame and the skull exposed by a longitudinal skin incision. A stainless steel cranial window ring (8.0 mm in inner diameter, 2.0 mm in height) containing three ports was imbedded into a loop of bone wax over the skull. Dental acrylic was then applied. A craniotomy (2×1.5 mm) was made in the left parietal bone within the ring of the window. After dura was opened and the brain surface superfused with artificial cerebrospinal fluid (aCSF), a cover glass was placed to close the window. The volume under the window was approximately 0.1 ml. The composition of aCSF was as follows (in mMol/L): […] The aCSF was superfused by an infusion pump (0.4 ml/min) via a PE-100 tubing connected to a window port. Intracranial pressure was maintained at 5-8 mm Hg. The temperature of aCSF within the windows was maintained at 36.5-37.0° C. Pial vessels were visualized through a cranial window by an intravital microscope (Leitz, Germany) equipped with a video camera ([…], Hamamatsu Photonics, Hamamatsu, Japan). The diameter of a single pial arteriole (20-30 μm) was continuously measured by a video width analyzer ([…], Hamamatsu, Japan) and recorded using the MacLab data acquisition and analysis system. After baseline stabilization, nitro-L-arginine or nitro-D-arginine solution (1 mM) was superfused into the window and the diameter of pial arteriole measured continuously 40 min thereafter.

[2] = Blood pressure responses to L-NA (femoral artery catheterization); format: in vivo, mice
Description: Mice were kept at normal temperature (37° C.), anesthetized with urethane ([…], intraperitoneal injection) or halothane inhalation, and ventilated using an SAR-830 mouse ventilator (CWE Instruments). Depth of anesthesia was adjusted to keep the blood pressure of animals unresponsive to tail-pinch with forceps. End-tidal CO2 was monitored with a microcapnometer and kept constant by adjustment of respiratory parameters. The right femoral artery was cannulated using stretched PE-10 polyethylene tubing (Clay Adams) for mean arterial blood pressure recordings using an ETH-400 transducer and a MacLab data acquisition system (ADI Instruments). For awake measurements, the femoral artery catheter was placed under halothane anesthesia and the wound was covered with 1% xylocane ointment to diminish discomfort. Recordings were made within one hour of the procedure. Data are expressed as means with standard deviation. Statistical evaluation was performed by t-test.
Mean arterial blood pressure (MABP) of urethane-anesthetized wild-type (solid line in FIG. 5) and eNOS mutant mice (dotted line in FIG. 5) were measured by femoral artery catheterization and recorded for 30 minutes of baseline before L-NA administration (arrows in FIG. 5). At time 0, 12 mg/kg of L-NA was given intraperitoneally. […] The blood pressure of eNOS mutant mice dropped from a baseline of 98 mm Hg to 66 mm Hg (n=5). […]

aortic rings = assay: Endothelium-dependent relaxation of aortic rings in response to acetylcholine; parameters: species or system mice
Text: The rings were pre-contracted with 10^−7 M norepinephrine and exposed to increasing concentrations of acetylcholine (ACh) from 10^−8 M to 3×10^−5 M. 2-3 segments were collected from each mouse, and five mice were used from the wild-type and eNOS mutant groups. Mean data from each animal were used. Respective tracings are shown. Acetylcholine concentrations are expressed in logM.

[3] = Cerebral infarct size 24 hrs after middle cerebral artery (MCA) occlusion; format: in vivo, mice
Description: Male and female wild-type (SV-129 and C57 Black/6, Taconic Farms, Germantown, N.Y.) and eNOS mutant mice weighing 20 to 26 g were housed under diurnal lighting conditions and allowed free access to food and water ad libitum.
Mice were anesthetized with 2% halothane for induction and maintained on 1% halothane in 70/30% nitrous oxide/oxygen by mask. The right femoral artery was cannulated with PE-10 polyethylene tubing for arterial blood pressure measurement (Gould, Oxnard, Calif.) and blood gas determination (Corning 178, Ciba Corning Diag., Medford, Mass.). Rectal temperature was maintained between 36.5-37.5° C. with a homeothermic blanket system (YSI, Yellow Springs, Ohio).
Focal cerebral ischemia was induced by occlusion of middle cerebral artery (MCA) using the intraluminal filament technique. […] Through a ventral midline incision, the right common and external arteries were isolated and ligated. A microvascular clip (Zen temporary clip, Ohwa Tsusho, Tokyo, Japan) was temporarily placed on the internal artery and the pterygopalatine artery. An 8-0 nylon monofilament (Ethicon, Somerville, N.J.) coated with silicone was introduced through a small incision in the common corotid artery and advanced 10 mm distal to the carotid bifurcation so as to occlude the MCA and posterior communicating artery. The wound was sutured and the animal returned to its cage and allowed free access to water and food.
Twenty-four hours later, animals were sacrificed with an overdoses of pentobarbital and the brains removed and sectioned coronally into five 2-mm slices in a mouse brain matrix. Slices were placed in 2% TTC solution, followed by 10% formalin overnight. […] The infarction area, outlined in white, was measured (Bioquant IV image analysis system) on the posterior surface of each section, and the infarction volume was calculated by summing the infarct volumes of sequential 2 mm thick sections. […]

[4] = Physiological data (blood gases, MABP) before MCA occlusion and after ischemia; format: in vivo, mice
Description: The right femoral artery was cannulated with PE-10 polyethylene tubing for arterial blood pressure measurement (Gould, Oxnard, Calif.) and blood gas determination (Corning 178, Ciba Corning Diag., Medford, Mass.). Rectal temperature was maintained between 36.5-37.5° C. with a homeothermic blanket system (YSI, Yellow Springs, Ohio). […] The investigator was blinded to the treatment group in this protocol.

[5] = eNOS mutant mice; 250 μg/ml in drinking water, daily dose about 750 μg; decrease from 102 mm Hg
Description: The effect of hypertension in vascular injury responses (both filament and cuff models) is measured by repeating the experiments after treating eNOS mutant mice with hydralazine to reduce their blood pressure to normotensive levels.

[6] = Amygdaloid complex, nNOS mutant
[7] = Cerebellum (molecular layer), SV-129
[8] = Cerebellum (molecular layer), nNOS mutant
[9] = Hippocampal CA3 subfield, SV-129
[10] = Hippocampal CA3 subfield, nNOS mutant

O=[N+]([O-])c1cccc2cn[nH]c12 [7-NI, 7-nitroindazole]
effect on blood pressure [1]: does not increase blood pressure | [3H]L-NA binding in the presence of 7-NI (NOS binding sites; 100 μM, all regions measured, wild-type and eNOS mutant mice): significantly decreased | L-NA displaceable [3H]L-NA binding in the presence of 7-NI (NOS binding sites; Amygdaloid complex, C57black/6): 21 ± 4.8 fmol/mg tissue | L-NA displaceable [3H]L-NA binding in the presence of 7-NI (NOS binding sites; Amygdaloid complex, SV-129): 21 ± 2.1 fmol/mg tissue | L-NA displaceable [3H]L-NA binding in the presence of 7-NI (NOS binding sites; Amygdaloid complex, eNOS mutant): 21 ± 2.9 fmol/mg tissue | L-NA displaceable [3H]L-NA binding in the presence of 7-NI (NOS binding sites; [6]): 23 ± 2.5 fmol/mg tissue | L-NA displaceable [3H]L-NA binding in the presence of 7-NI (NOS binding sites; Cerebellum (molecular layer), C57black/6): 23 ± 5.4 fmol/mg tissue | L-NA displaceable [3H]L-NA binding in the presence of 7-NI (NOS binding sites; [7]): 18 ± 1.3 fmol/mg tissue | L-NA displaceable [3H]L-NA binding in the presence of 7-NI (NOS binding sites; Cerebellum (molecular layer), eNOS mutant): 20 ± 2.2 fmol/mg tissue | L-NA displaceable [3H]L-NA binding in the presence of 7-NI (NOS binding sites; [8]): 24 ± 1.0 fmol/mg tissue | L-NA displaceable [3H]L-NA binding in the presence of 7-NI (NOS binding sites; Dentate gyrus, C57black/6): 22 ± 4.6 fmol/mg tissue | L-NA displaceable [3H]L-NA binding in the presence of 7-NI (NOS binding sites; Dentate gyrus, SV-129): 18 ± 0.7 fmol/mg tissue | L-NA displaceable [3H]L-NA binding in the presence of 7-NI (NOS binding sites; Dentate gyrus, eNOS mutant): 20 ± 2.7 fmol/mg tissue | L-NA displaceable [3H]L-NA binding in the presence of 7-NI (NOS binding sites; Dentate gyrus, nNOS mutant): 22 ± 1.7 fmol/mg tissue | L-NA displaceable [3H]L-NA binding in the presence of 7-NI (NOS binding sites; Hippocampal CA3 subfield, C57black/6): 22 ± 4.7 fmol/mg tissue | L-NA displaceable [3H]L-NA binding in the presence of 7-NI (NOS binding sites; [9]): 18 ± 1.8 fmol/mg tissue | L-NA displaceable [3H]L-NA binding in the presence of 7-NI (NOS binding sites; Hippocampal CA3 subfield, eNOS mutant): 21 ± 1.8 fmol/mg tissue | L-NA displaceable [3H]L-NA binding in the presence of 7-NI (NOS binding sites; [10]): 23 ± 2.3 fmol/mg tissue | L-NA displaceable [3H]L-NA binding in the presence of 7-NI (NOS binding sites; Olfactory bulb (glanular layer), C57black/6): 28 ± 4.1 fmol/mg tissue | L-NA displaceable [3H]L-NA binding in the presence of 7-NI (NOS binding sites; Olfactory bulb (glanular layer), SV-129): 17 ± 0.7 fmol/mg tissue | L-NA displaceable [3H]L-NA binding in the presence of 7-NI (NOS binding sites; Olfactory bulb (glanular layer), nNOS mutant): 30 ± 2.7 fmol/mg tissue

NC(=N[N+](=O)[O-])NCCCC(N)C(=O)O [D-NA, D-N^G-nitro-arginine]
change in pial diameter (pial arterioles; eNOS mutant mice, 1 mM superfusion): No change | L-NA displaceable [3H]L-NA binding in the presence of D-NA (NOS binding sites; Amygdaloid complex, SV-129): 64 ± 7.6 fmol/mg tissue | L-NA displaceable [3H]L-NA binding in the presence of D-NA (NOS binding sites; [6]): 3 ± 1.7*^,# fmol/mg tissue | L-NA displaceable [3H]L-NA binding in the presence of D-NA (NOS binding sites; [7]): 59 ± 6.7 fmol/mg tissue | L-NA displaceable [3H]L-NA binding in the presence of D-NA (NOS binding sites; [8]): 0 ± 3.6*^,# fmol/mg tissue | L-NA displaceable [3H]L-NA binding in the presence of D-NA (NOS binding sites; Dentate gyrus, SV-129): 43 ± 4.8 fmol/mg tissue | L-NA displaceable [3H]L-NA binding in the presence of D-NA (NOS binding sites; Dentate gyrus, nNOS mutant): 2 ± 1.9*^,# fmol/mg tissue | L-NA displaceable [3H]L-NA binding in the presence of D-NA (NOS binding sites; [9]): 66 ± 5.9 fmol/mg tissue | L-NA displaceable [3H]L-NA binding in the presence of D-NA (NOS binding sites; [10]): 3 ± 1.9*^,# fmol/mg tissue | L-NA displaceable [3H]L-NA binding in the presence of D-NA (NOS binding sites; Olfactory bulb (granular layer), SV-129): 92 ± 10.8 fmol/mg tissue | L-NA displaceable [3H]L-NA binding in the presence of D-NA (NOS binding sites; Olfactory bulb (granular layer), nNOS mutant): 5 ± 3.0*^,# fmol/mg tissue | blood pressure effects as seen with L-NA ([2]; wild-type and eNOS mutant mice, 12 mg/kg): not seen

NC(=N[N+](=O)[O-])NCCCC(N)C(=O)O [L-NA, L-nitroarginine]
change in MABP during superfusion (pial arterioles; 1 mM superfusion): no change | pial vessel diameter (pial arterioles; eNOS mutant mice, 1 mM superfusion for 40 min): increased | acetylcholine-induced relaxation after L-NA treatment (aortic rings; wild-type vessel rings, 10^-4 M L-NA for 1 hour): abolished | density of [3H]L-NA binding sites in the presence of L-NA (NOS binding sites; 10 μM, all brain regions of all mouse strains): very low | change of lesion size after MCA occlusion ([3]; protocol 2, wild-type mice): did not change

N=C(N)NCCC[C@H](N)C(=O)O [L-arginine]
effect on the blood pressure responses to L-NA ([2]; 200 mg/kg, intraperitoneal): prevented

CC(=O)OCC[N+](C)(C)C [acetylcholine]
pre-addition tone present after acetylcholine (aortic rings; wild-type aortic segments pre-contracted with 10^-7 M norepinephrine, acetylcholine 3×10^-5 M): 60.3±14.6%

NNc1nncc2ccccc12 [hydralazine, hydralazine hydrochloride]
MABP difference between groups after hydralazine administration ([4]; eNOS mutant mice given hydralazine vs wild-type mice): did not differ | MABP before ([4]; protocol 1, eNOS mutant, hydralazine, 10 min before MCA occlusion): 102 ± 6 mmHg | MABP after ([4]; protocol 1, eNOS mutant, hydralazine, 24 hrs after ischemia): 102 mmHg | change of infarct size ([3]; eNOS mutants made normotensive by hydralazine): did not change | infarct volume ([3]; protocol 1, eNOS mutant mice made normotensive by hydralazine 1 mg/kg ip 1 hr before and 5, 17 hrs after MCA occlusion, n=10): 48±7 % of hemisphere | mean arterial pressure after hydralazine [5]: 72 mm Hg
